Each structure is given as a SMILES string.

This experiment relates to DLB rats. In words: Object recognition test in DLB rats. In kind it is in vivo, rat. To be noted: group A3, 100 mg/kg/day IP for 27 days, test on 27th day, p<0.05.

Method: Saline is also used to be administrated to the normal rats of group A1.
Recognition ability of the rats of groups A1-A3 is measured using the object recognition test (Ho et al., Behav Brain Res 268: 177-184, 2014). Specifically, on the 25th & 26th day, the rat “M” under the test is placed in an open box, shown as FIG. 2a, for 5 minutes. Three flavorless objects (objects O1, O2 & O3) with the same size, color, shape and material are respectively fixed at three corners of the open box.
On the 27th day, the rat “M” under the test is first placed in the open box shown as FIG. 2a, and the time spent exploring the object O1 (T01) and the total time spent exploring the objects O1, O2 & O3 (TO1+O2+O3) are recorded, respectively. The percentage of the exploration time spent on the object O1 is calculated as (TO1/TO1+O2+O3)*100%. After 5 minutes, a novel object O4 with different size, color, shape and material is used to replace the object O1 (shown in FIG. 2b), and the rat “M” under the test is placed in the open box. The time spent exploring the novel object O4 (TO4) and the total time spent exploring the objects O2 & O3 and the novel object O4 (TO2+O3+O4) are respectively recorded, and the percentage of the exploration time spent on the novel object O4 is calculated as (TO4/TO2+O3+O4)*100%.

Turning to `CO/N=C(\C(=O)N[C@@H]1C(=O)N2C(C(=O)O)=C(CSc3nc(=O)c(=O)[nH]n3C)CS[C@H]12)c1csc(N)n1` [ceftriaxone], the “recognition of the novel object O4 (percentage of time exploring object)” value is reported as “can recognize the novel object O4”.
